Data reported in patent US20260263613A1, “USE OF DRUG C[…]-CD20 ANTIBODY-DRUG CONJUGATE IN PREPARATION OF DRUG FOR TREATING NHL” (priority 2023, published 2026).
Values joined by “and” are separate entries in the source; they are usually repeats but may differ in a detail not shown here. Equal values may be shown once.

Assays:
[1] = test system: human lymphoma WSU-DLCL2 cell xenograft tumor; assay: Inhibition of human lymphoma WSU-DLCL2 cell xenograft tumor growth; type: in vivo, SCID mouse
Protocol: Example 3: Inhibition of Human Lymphoma WSU-DLCL2 Cell Xenograft Tumor Growth by TRS005 Alone and TRS005 in Combination with CHP Compared to R-CHOP Regimen Administration Drug Information, Model Establishment, Grouping, and Administration
The TRS005 finished product is provided by Zhejiang Teruisi Pharmaceutical Inc., and other positive drugs are commercially available. Among them, MabThera, Cyclophosphamide, Doxorubicin, Vincristine, and Prednisone are prepared with normal saline as the solvent to corresponding concentrations and stored at 4° C. away from light. The TRS005 finished product is reconstituted with sterile water for injection (WFI), and a corresponding volume of normal saline is added to prepare the corresponding concentration. The TRS005 finished product is reconstituted and packaged with WFI and stored at −70° C.
(§1) Under sterile conditions, each SCID mouse was inoculated with 0.1 mL of WSU-DLCL2 cell suspension at a concentration of 4×10^7/mL subcutaneously on the right back. When the mean tumor volume (TV) reached ~150 mm^3, animals were randomized into 4 groups according to their TV: Group 1 (Vehicle), Group 2 (R-CHOP), Group 3 (TRS005) and Group 4 (TRS005-CHP (T-CHP)), with 6 mice in each group, so that the difference in TV of mice in each group was <10% of the mean. The day of grouping was recorded as Day 0, and the administration was started according to animal body weight (BW).
(§2) The BW and TV of animals were measured twice a week during the study. During the study, the clinical symptoms of animals were observed and recorded once a day. Clinical observations included general health status, abnormal BW and behavior of animals, and other treatment-related adverse reactions.
(§3) The tumor growth inhibition rate (% TGI) is calculated as follows: (1−TVT/TVC)×100%, where TVC is the mean TV of the negative control group, and TVT is the mean TV of the treatment group.
(§4) Relative Tumor Volume (RTV) is calculated as Vt/V0, where V0 is the TV at grouping and Vt is the TV at each measurement.
(§5) The calculation formula for relative tumor proliferation rate (% T/CRTV) is: • TRTV/CRTV×100%, where TRTV is the RTV of the treatment group and CRTV is the RTV of the negative control group.
(§6) According to the Technical Guidelines for Nonclinical Study of Cytotoxic Anti-tumor Drugs (November 2006) issued by NMPA in China, it is considered effective if % T/CRTV≤40% and P<0.05 after statistical analysis. Drug doses are considered to be severely toxic when the number of animal deaths related to the drug exceeds 20%.

[2] = Body weight and drug-related deaths of WSU-DLCL2 tumor-bearing animals; type: in vivo, SCID mouse
Protocol: as §1, §2
(§7) The animal body weight change (% BWC) is calculated as follows: (BWt−BW0)/BW0×100%, where BWt is the animal BW at each measurement and BW0 is the animal BW at grouping.
as §6

[3] = test system: human lymphoma OCI-LY19 cell xenograft tumors; assay: Growth inhibition of human lymphoma OCI-LY19 cell xenograft tumors; type: in vivo, mouse
Protocol: Embodiment 4: Growth Inhibition of Human Lymphoma OCI-LY19 Cell Xenograft Tumors by TRS005 Alone and TRS005 in Combination with CHP Compared to R-CHOP Regimen Administration
(§8) The drug information is the same as in Embodiment 3. Under sterile conditions, each mouse was inoculated with 0.1 mL of OCI-LY19 cell suspension at a concentration of 2×10^6/mL subcutaneously on the right back. When the mean TV reached ~150 mm^3, animals were randomized into 4 groups according to their TV: Group 1 (Vehicle), Group 2 (R-CHOP), Group 3 (TRS005) and Group 4 (T-CHP), with 10 mice in each group, so that the difference in TV of mice in each group was <10% of the mean. The day of grouping was recorded as Day 0, and the administration was started according to animal BW.
(§9) The BW and TV of animals were measured twice a week during the study. During the study, the clinical symptoms of animals were observed and recorded once a day. Clinical observations included general health status, abnormal BW and behavior of animals, and other treatment-related adverse reactions. During the study, if an individual experimental animal meets any of the following conditions, the animal will be removed from the study group and euthanized. 1. The body weight loss (BWL) of animals was ≥20% compared with Day 0; 2. Animals had serious adverse reactions, such as blindness and paralysis; 3. TV was >2000 mm^3; 4. Open ulcers were formed on the tumor surface.
The calculation formula for TV is: ½×a×b^2, where a and b are the measured length and width of the tumor, respectively.
as §3, §4, §5

[4] = Body weight and drug-related deaths of OCI-LY19 tumor-bearing animals; type: in vivo, mouse
Protocol: as §8, §9, §7

TRS005: anti-CD20 ADC; mAb is Rituximab or a biosimilar thereof, drug antibody ratio (DAR) 4.2±0.5
Anti-tumor efficacy in words ([1]; WSU-DLCL2 xenograft (high CD20 expression), compared with the other regimens): better efficacy than the R-CHOP regimen
Tumor Volume (Mean ± SEM) Day 0 ([1]; WSU-DLCL2 xenograft, Day 0 (at grouping, before dosing), 6 mice/group): 127.16 mm^3
% T/CRTV Day 35 ([1]; WSU-DLCL2 xenograft, Day 35): 17.81%
RTV Day 35 ([1]; WSU-DLCL2 xenograft, Day 35, Vt/V0): 2.44
Tumor Volume (Mean ± SEM) Day 35 ([1]; WSU-DLCL2 xenograft, Day 35, TRS005 0.75 mg/kg IV BIW × 3 w, regimens per Table 2, 0.75 mg/kg): 315.93±94.23 mm^3 and 315.93 mm^3
% TGI Day 35 ([1]; WSU-DLCL2 xenograft, Day 35, regimens per Table 2): 81.94%
Body Weight of Mice (Mean ± SEM) Day 0 ([2]; Day 0 (baseline)): 20.12 ± 0.35 g
Body Weight of Mice (Mean ± SEM) Day 35 ([2]; Day 35): 20.78 ± 0.50 g
% BWC Day 35 vs Day 0 ([2]; WSU-DLCL2 tumor-bearing mice): 3.25%
Body weight change Day 35 vs Day 0 ([2]; WSU-DLCL2 tumor-bearing mice): 0.66 g
Safety / drug-related toxicity in words ([2]; WSU-DLCL2 tumor-bearing mice, during the study): good safety
Number of Mice with Drug-related Deaths Day 35 ([2]; deaths/number of mice): 0/6
Tumor Volume (Mean ± SEM) Day 0 ([3]; Day 0 (at grouping, before dosing), 10 mice/group): 107.78 mm^3
% T/CRTV Day 14 ([3]; Day 14): 48.28%
% TGI Day 14 ([3]; Day 14): 51.87%
Tumor Volume (Mean ± SEM) Day 14 ([3]; Day 14, TRS005 1.5 mg/kg IV BIW × 3 w, regimens per Table 5, 1.5 mg/kg): 905.30±129.66 mm^3 and 905.30 mm^3
RTV Day 14 ([3]; Day 14, Vt/V0): 8.29
Tumor Volume (Mean ± SEM) Day 17 ([3]; Day 17): 1182.02 mm^3
Tumor Volume (Mean ± SEM) Day 21 ([3]; Day 21, remaining mice (Group 3 N = 9)): 1764.32 mm^3
Tumor Volume (Mean ± SEM) Day 24 ([3]; Day 24, remaining mice (Group 3 N = 6)): 2274.64 mm^3
Tumor Volume (Mean ± SEM) Day 28 ([3]; Day 28, remaining mice (Group 2 N = 3, Group 3 N = 1, Group 4 N = 9)): 0.00 mm^3
Body Weight of Mice (Mean ± SEM) Day 0 ([4]; Day 0 (baseline)): 20.95 ± 0.36 g
Body Weight of Mice (Mean ± SEM) Day 14 ([4]; Day 14): 22.76 ± 0.45 g
% BWC Day 14 vs Day 0 ([4]; OCI-LY19 tumor-bearing mice): 8.96%
Body weight change Day 14 vs Day 0 (in g) ([4]; OCI-LY19 tumor-bearing mice): (1.81 g)
Safety / drug-related toxicity in words ([4]; OCI-LY19 tumor-bearing mice, during the study): good safety
Number of Mice with Drug-related Deaths Day 14 ([4]; deaths/number of mice): 0/10
